# Measurements taken from PubChem BioAssay AID1963433 (Molecular Pharmacology Branch, DTP, NCI, 2024).
# “And” between values parts separate entries of the source, which are not always exact repeats. Identical values can stand only once.
# Test system: 772245-204-R-J1-PDC complex spheroid growth
# Experiment: Anticancer human tumor 772245-204-R-J1-PDC patient-derived rhabdomyosarcoma cell line growth inhibition [Asc]
# Conditions: for viability, T/C: stronger effect = lower value
# In short: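 Tumor cells were grown as complex spheroids with human endothelial cells (HUVEC) and human mesenchymal stem cells as stroma. Agents were tested alone and in combination, in half-log steps down from the clinical Cmax, or from 10 microM where Cmax was unknown.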
# [1] = curve of first compound, second compound 0.03 µM
# [2] = curve of first compound, second compound 0.0949 µM
# [3] = curve of first compound, second compound 0.3 µM
# [4] = curve of first compound, second compound 0.949 µM
# [5] = curve of first compound, second compound 3 µM
# [6] = second compound 0.03 µM, first compound 0.0316 µM
# [7] = second compound 0.03 µM, first compound 0.1 µM
# [8] = second compound 0.03 µM, first compound 0.316 µM
# [9] = second compound 0.03 µM, first compound 1 µM
# [10] = second compound 0.0949 µM, first compound 0.0316 µM
# [11] = second compound 0.0949 µM, first compound 0.1 µM
# [12] = second compound 0.0949 µM, first compound 0.316 µM
# [13] = second compound 0.0949 µM, first compound 1 µM
# [14] = second compound 0.3 µM, first compound 0.0316 µM
# [15] = second compound 0.3 µM, first compound 0.1 µM
# [16] = second compound 0.3 µM, first compound 0.316 µM
# [17] = second compound 0.3 µM, first compound 1 µM
# [18] = second compound 0.949 µM, first compound 0.0316 µM
# [19] = second compound 0.949 µM, first compound 0.1 µM
# [20] = second compound 0.949 µM, first compound 0.316 µM
# [21] = second compound 0.949 µM, first compound 1 µM
# [22] = second compound 3 µM, first compound 0.0316 µM
# [23] = second compound 3 µM, first compound 0.1 µM
# [24] = second compound 3 µM, first compound 0.316 µM
# [25] = second compound 3 µM, first compound 1 µM
# [26] = second compound 0.03 µM, first compound 0.00316 µM
# [27] = second compound 0.03 µM, first compound 0.01 µM
# [28] = second compound 0.0949 µM, first compound 0.00316 µM
# [29] = second compound 0.0949 µM, first compound 0.01 µM
# [30] = second compound 0.3 µM, first compound 0.00316 µM
# [31] = second compound 0.3 µM, first compound 0.01 µM
# [32] = second compound 0.949 µM, first compound 0.00316 µM
# [33] = second compound 0.949 µM, first compound 0.01 µM
# [34] = second compound 3 µM, first compound 0.00316 µM
# [35] = second compound 3 µM, first compound 0.01 µM
# 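Further: compound exposure lasted seven days.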
# 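Wherever viability, T/C is given: 100% = DMSO vehicle control viability.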
compound,measurement,setting,value
C#Cc1c(F)ccc2cc(O)cc(-c3ncc4c(N5CC6CCC(C5)N6)nc(OCC56CCCN5CC(F)C6)nc4c3F)c12 (centres undefined) + CNC(C)C(=O)NC1CN(S(=O)(=O)c2cccc(S(=O)(=O)N3CCC4CCC(C(=O)NC(c5ccccc5)c5ccccc5)N4C(=O)C(NC(=O)C(C)NC)C3)c2)CCC2CCC(C(=O)NC(c3ccccc3)c3ccccc3)N2C1=O,IC50,"curve of first compound, second compound 0.00316 µM",> 10000 nM
same,IC50,"curve of first compound, second compound 0.01 µM",> 10000 nM
same,IC50,"curve of first compound, second compound 0.0316 µM",> 10000 nM
same,IC50,"curve of first compound, second compound 0.1 µM",> 10000 nM
same,IC50,"curve of first compound, second compound 0.316 µM",> 10000 nM
same,IC50,"curve of first compound, second compound 1 µM",> 10000 nM
same,"viability, T/C","second compound 0.00316 µM, first compound 0.0316 µM",104%
same,"viability, T/C","second compound 0.00316 µM, first compound 0.1 µM",104%
same,"viability, T/C","second compound 0.00316 µM, first compound 0.316 µM",92.4%
same,"viability, T/C","second compound 0.00316 µM, first compound 1 µM",102%
same,"viability, T/C","second compound 0.00316 µM, first compound 3.16 µM",89.2%
same,"viability, T/C","second compound 0.00316 µM, first compound 10 µM",79%
same,"viability, T/C","second compound 0.01 µM, first compound 0.0316 µM",101%
same,"viability, T/C","second compound 0.01 µM, first compound 0.1 µM",88%
same,"viability, T/C","second compound 0.01 µM, first compound 0.316 µM",91%
same,"viability, T/C","second compound 0.01 µM, first compound 1 µM",104%
same,"viability, T/C","second compound 0.01 µM, first compound 3.16 µM",86.5%
same,"viability, T/C","second compound 0.01 µM, first compound 10 µM",64.1%
same,"viability, T/C","second compound 0.0316 µM, first compound 0.0316 µM",92.7%
same,"viability, T/C","second compound 0.0316 µM, first compound 0.1 µM",93.8%
same,"viability, T/C","second compound 0.0316 µM, first compound 0.316 µM",89.6%
same,"viability, T/C","second compound 0.0316 µM, first compound 1 µM",101%
same,"viability, T/C","second compound 0.0316 µM, first compound 3.16 µM",107%
same,"viability, T/C","second compound 0.0316 µM, first compound 10 µM",71.8%
same,"viability, T/C","second compound 0.1 µM, first compound 0.0316 µM",100%
same,"viability, T/C","second compound 0.1 µM, first compound 0.1 µM",93.4%
same,"viability, T/C","second compound 0.1 µM, first compound 0.316 µM",95.8%
same,"viability, T/C","second compound 0.1 µM, first compound 1 µM",89%
same,"viability, T/C","second compound 0.1 µM, first compound 3.16 µM",101%
same,"viability, T/C","second compound 0.1 µM, first compound 10 µM",67.8%
same,"viability, T/C","second compound 0.316 µM, first compound 0.0316 µM",94.2%
same,"viability, T/C","second compound 0.316 µM, first compound 0.1 µM",67.8%
same,"viability, T/C","second compound 0.316 µM, first compound 0.316 µM",82%
same,"viability, T/C","second compound 0.316 µM, first compound 1 µM",96.5%
same,"viability, T/C","second compound 0.316 µM, first compound 3.16 µM",92.4%
same,"viability, T/C","second compound 0.316 µM, first compound 10 µM",68%
same,"viability, T/C","second compound 1 µM, first compound 0.0316 µM",78.9%
same,"viability, T/C","second compound 1 µM, first compound 0.1 µM",96.2%
same,"viability, T/C","second compound 1 µM, first compound 0.316 µM",93.3%
same,"viability, T/C","second compound 1 µM, first compound 1 µM",83%
same,"viability, T/C","second compound 1 µM, first compound 3.16 µM",80%
same,"viability, T/C","second compound 1 µM, first compound 10 µM",63.9%
O=C(c1cc(Cc2n[nH]c(=O)c3ccccc23)ccc1F)N1CCN(C(=O)C2CC2)CC1 + CCN1C(C(=O)NC23CCC(C(=O)O)(CC2)CC3)C(c2cccc(Cl)c2F)C2(C(=O)Nc3cc(Cl)ccc32)C12CCCCC2,IC50,[1],> 10000 nM
same,IC50,[2],> 10000 nM
same,IC50,[3],> 10000 nM
same,IC50,[4],> 10000 nM
same,IC50,[5],> 10000 nM
same,"viability, T/C",[6],102%
same,"viability, T/C",[7],113%
same,"viability, T/C",[8],93.7%
same,"viability, T/C",[9],95.2%
same,"viability, T/C","second compound 0.03 µM, first compound 3.16 µM",87.3%
same,"viability, T/C","second compound 0.03 µM, first compound 10 µM",70.1%
same,"viability, T/C",[10],108%
same,"viability, T/C",[11],113%
same,"viability, T/C",[12],97.2%
same,"viability, T/C",[13],100%
same,"viability, T/C","second compound 0.0949 µM, first compound 3.16 µM",79.7%
same,"viability, T/C","second compound 0.0949 µM, first compound 10 µM",72%
same,"viability, T/C",[14],121%
same,"viability, T/C",[15],115%
same,"viability, T/C",[16],102%
same,"viability, T/C",[17],93.1%
same,"viability, T/C","second compound 0.3 µM, first compound 3.16 µM",92%
same,"viability, T/C","second compound 0.3 µM, first compound 10 µM",69.2%
same,"viability, T/C",[18],101%
same,"viability, T/C",[19],92.9%
same,"viability, T/C",[20],99.6%
same,"viability, T/C",[21],88.3%
same,"viability, T/C","second compound 0.949 µM, first compound 3.16 µM",73.3%
same,"viability, T/C","second compound 0.949 µM, first compound 10 µM",63.8%
same,"viability, T/C",[22],77.2%
same,"viability, T/C",[23],80.4%
same,"viability, T/C",[24],84.1%
same,"viability, T/C",[25],74.7%
same,"viability, T/C","second compound 3 µM, first compound 3.16 µM",55.8%
same,"viability, T/C","second compound 3 µM, first compound 10 µM",62.5%
CNC(C)C(=O)NC1CN(S(=O)(=O)c2cccc(S(=O)(=O)N3CCC4CCC(C(=O)NC(c5ccccc5)c5ccccc5)N4C(=O)C(NC(=O)C(C)NC)C3)c2)CCC2CCC(C(=O)NC(c3ccccc3)c3ccccc3)N2C1=O (centres undefined) + CCN1C(C(=O)NC23CCC(C(=O)O)(CC2)CC3)C(c2cccc(Cl)c2F)C2(C(=O)Nc3cc(Cl)ccc32)C12CCCCC2,IC50,[1],> 1000 nM
same,IC50,[2],> 1000 nM
same,IC50,[3],> 1000 nM
same,IC50,[4],> 1000 nM
same,IC50,[5],577 nM
same,"viability, T/C",[26],86.2%
same,"viability, T/C",[27],102%
same,"viability, T/C",[6],88%
same,"viability, T/C",[7],91.8%
same,"viability, T/C",[8],94.9%
same,"viability, T/C",[9],86.8%
same,"viability, T/C",[28],94.5%
same,"viability, T/C",[29],98.9%
same,"viability, T/C",[10],75.3%
same,"viability, T/C",[11],89.7%
same,"viability, T/C",[12],79.2%
same,"viability, T/C",[13],85.3%
same,"viability, T/C",[30],74.8%
same,"viability, T/C",[31],83%
same,"viability, T/C",[14],84.6%
same,"viability, T/C",[15],68.9%
same,"viability, T/C",[16],70.8%
same,"viability, T/C",[17],88.1%
same,"viability, T/C",[32],88.2%
same,"viability, T/C",[33],87.4%
same,"viability, T/C",[18],78.8%
same,"viability, T/C",[19],75.2%
same,"viability, T/C",[20],73%
same,"viability, T/C",[21],62.4%
same,"viability, T/C",[34],72.8%
same,"viability, T/C",[35],62.2%
same,"viability, T/C",[22],60.2%
same,"viability, T/C",[23],56.7%
same,"viability, T/C",[24],43.2%
same,"viability, T/C",[25],53.2%
O=C(c1ccc(F)c(F)c1Nc1ccc(I)cc1F)N1CC(O)([C@@H]2CCCCN2)C1,"viability, T/C",compound 0.00316 µM,108% and 99.4% and 97.4%
same,"viability, T/C",compound 0.01 µM,94.5% and 97% and 98.1%
same,"viability, T/C",compound 0.0316 µM,87.7% and 96.5% and 90.6%
same,"viability, T/C",compound 0.1 µM,107% and 102% and 72.1%
same,"viability, T/C",compound 0.316 µM,105% and 107% and 108%
same,"viability, T/C",compound 1 µM,49.5% and 60.2% and 114%
same,IC50,curve of compound,990 nM and > 1000 nM
NC1CCC(NC2CC2c2ccccc2)CC1 (centres undefined) + CCN1C(C(=O)NC23CCC(C(=O)O)(CC2)CC3)C(c2cccc(Cl)c2F)C2(C(=O)Nc3cc(Cl)ccc32)C12CCCCC2,IC50,[1],> 100 nM
same,IC50,[2],> 100 nM
same,IC50,[3],> 100 nM
same,IC50,[4],> 100 nM
same,IC50,[5],> 100 nM
same,"viability, T/C","second compound 0.03 µM, first compound 0.000316 µM",103%
same,"viability, T/C","second compound 0.03 µM, first compound 0.001 µM",94.6%
same,"viability, T/C",[26],100%
same,"viability, T/C",[27],86.5%
same,"viability, T/C",[6],108%
same,"viability, T/C",[7],98.1%
same,"viability, T/C","second compound 0.0949 µM, first compound 0.000316 µM",96.3%
same,"viability, T/C","second compound 0.0949 µM, first compound 0.001 µM",96.3%
same,"viability, T/C",[28],90.3%
same,"viability, T/C",[29],92.5%
same,"viability, T/C",[10],84.9%
same,"viability, T/C",[11],93.5%
same,"viability, T/C","second compound 0.3 µM, first compound 0.000316 µM",106%
same,"viability, T/C","second compound 0.3 µM, first compound 0.001 µM",80.2%
same,"viability, T/C",[30],101%
same,"viability, T/C",[31],85.5%
same,"viability, T/C",[14],111%
same,"viability, T/C",[15],89.8%
same,"viability, T/C","second compound 0.949 µM, first compound 0.000316 µM",95.2%
same,"viability, T/C","second compound 0.949 µM, first compound 0.001 µM",80.8%
same,"viability, T/C",[32],83.6%
same,"viability, T/C",[33],86.9%
same,"viability, T/C",[18],95.1%
same,"viability, T/C",[19],96.3%
same,"viability, T/C","second compound 3 µM, first compound 0.000316 µM",70.2%
same,"viability, T/C","second compound 3 µM, first compound 0.001 µM",65.8%
same,"viability, T/C",[34],73.2%
same,"viability, T/C",[35],77.9%
same,"viability, T/C",[22],73.1%
same,"viability, T/C",[23],75.4%
